Like-named read-outs stand apart in the source and are kept apart here. Each block holds one molecule with its values, some of them ahead of it.
Experiments:
[1] = biological target: T1, human serine racemase (hSR) (Homo sapiens, UniProt Q9GZT4); conditions: cited from earlier work
T1 sequence (Q9GZT4 1-340): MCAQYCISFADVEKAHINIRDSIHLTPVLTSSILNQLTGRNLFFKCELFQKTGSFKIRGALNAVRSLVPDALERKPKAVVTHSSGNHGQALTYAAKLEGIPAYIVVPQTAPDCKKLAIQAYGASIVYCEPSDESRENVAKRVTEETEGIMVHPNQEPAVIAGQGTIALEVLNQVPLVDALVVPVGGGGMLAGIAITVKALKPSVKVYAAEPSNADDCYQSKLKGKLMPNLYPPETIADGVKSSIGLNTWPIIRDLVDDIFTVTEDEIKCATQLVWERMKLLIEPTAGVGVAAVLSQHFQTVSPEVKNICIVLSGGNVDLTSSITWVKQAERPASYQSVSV

[2] = biological target: T1, human serine racemase (hSR); test: 13C/2H-isotopic crosstalk NMR dual function assay; conditions: for IC50: 13C/2H crosstalk NMR assay
[3] = biological target: T1, human serine racemase (hSR); test: steady state kinetic analysis, coupled UV-vis assay for β-elimination; type: biochemical
[4] = biological target: T2, human serine racemase (hSR), allosteric ATP site (Homo sapiens, UniProt Q9GZT4); test: steady state competition against ATP, L-Ser held constant at 30 mM; type: biochemical; conditions: L-Ser constant at 30 mM
T2 sequence (Q9GZT4 1-340): T1 sequence (Q9GZT4 1-340)

[5] = solubility under assay conditions; type: physicochemical
[6] = read-out: IC50(H/D-exchange), L-Ser 30 mM
[7] = read-out: IC50(β-elimination), positive controls

Molecule: N[C@H](C(=O)O)[C@@H](O)C(=O)O [L-EHA, L-erythro-β-hydroxy-aspartate]
Ki ([1]; literature, most potent inhibitors yet identified): ~30 µM

Molecule: NC(=O)C1=CN([C@@H]2O[C@H](COP(=O)(O)O)[C@@H](O)[C@H]2O)C=CC1 [NMNH, nicotinamide mononucleotide, reduced form]
mode of inhibition with respect to substrate ([1]; ref Mozzarelli and co-workers): non-competitive inhibition

IC50 [2, 6]: 89 ± 35 µM | IC50 [2, 7]: 39000 ± 2000 µM
Molecule: O=C(O)CP(=O)(O)O [compound 1, phosphonoacetate, reference compound]

Molecule: CCOP(=O)(CC(=O)O)OCC [compound 2, diethyl phosphonate acetate, reference compound]
IC50 ([2]; read-out: IC50(H/D-exchange), positive controls): 95000 ± 10000 µM | IC50 [2, 7]: 96000 ± 19000 µM

Molecule: O=C(O)C(Cl)(Cl)C(=O)O [dichloromalonate]
Ki [1]: ~20 µM

Molecule: O=C(O)CC(=O)O [malonate]
Ki ([1]; ref 33a): 20 to 120 µM

Ki ([3]; read-out: Ki (L-SOS elim), β-elimination of L-serine-O-sulfate): 12 ± 4 µM | Ki ([3]; read-out: Ki (L-Ser elim), β-elimination of L-Ser): 44 ± 6 µM | mode of inhibition vs. substrate ([3]; steady state kinetics): non-competitive inhibition | inhibition in the NMR screen ([2]; 1 mM): complete inhibition | Hill coefficient of dose-response curve ([2]; NMR assay): ~ 2 | IC50 [2, 6]: 45 ± 6 µM | IC50 ([2]; read-out: IC50(β-elimination), L-Ser 30 mM): 36 ± 10 µM | relative solubility [5]: more soluble than the N-alkyl congeners
Molecule: N-H indolo-chroman-2,4-dione [compound 10]
mode of inhibition vs. ATP [4]: competing with ATP for the allosteric site
